Results: PMC9861386, “N-Heterocyclic Carbene-Iridium Complexes as Photosensitizers for In Vitro Photodynamic Therapy to Trigger Non-Apoptotic Cell Death in Cancer Cells” (Molecules, 2023)

System: MCF7/FasR cells
Experiment: Cell death with or without pan-caspase inhibitor z-VAD-fmk, MTT
Format: cell-based, human
Conditions: 500 nM complex, 10 µM z-VAD-fmk, 458 nm irradiation, 72 h
Excerpt: To determine the mechanism of cell death, we used MCF7 cells transfected to express the human Fas receptor (FasR) or doubly transfected to express the human Fas receptor and human Bcl-xL [75]. Since MCF7 cells express the TNF receptor endogenously, this allowed the study of both Fas- and TNFα-mediated apoptosis in the same cell model to assess whether cell death was dependent on the Bcl-2 family of mitochondrial proteins such as Bcl-xL. […] This is consistent with findings that death receptors such as FasR and TNFR can mediate apoptosis through both the extrinsic pathway (mitochondria-independent by directly activating executioner caspases via upstream caspase-8) and the intrinsic (mitochondrial) pathway controlled by the Bcl-2 family of proteins.
We next evaluated the effect of the pan-caspase inhibitor z-VAD-fmk on caspase signaling. As expected, the treatment with z-VAD-fmk rendered MCF7/FasR cells resistant to TNFα-induced PARP and caspase-7 processing (Figure 14A) and to the loss of cell viability (Figure 14B).
A tetrazolium-based MTT reagent (3-(4,5-dimethylthiazol-2-yl)-2,5-diphenyltetrazolium bromide) was used to determine cell viability, as previously described. After 72 h of treatment at 37 °C and 5% CO2, cells were incubated with 25 μL MTT solution (5 mg/mL; Sigma-Aldrich) for 4 h. After solubilization with 500 μL of lysis buffer (DMSO), formazan was quantified by spectrophotometry with a microplate reader at 570 nm absorbance (ClarioSTAR, BMG LabTech, Champigny-sur-Marne, France). […] All results were calculated from data obtained in at least three independent experiments.
Figure 11 Bcl-xL and z-VAD-fmk inhibited by Fas- or TNFα-induced cell death in MCF7 cells. […] Cell death was assessed by MTT assay. […]
Figure 14 Evaluation of apoptotic biomarkers. […] (B) Cell viability was evaluated in duplicate samples. Data are expressed as percent (%) of untreated cells and are the means of 3 independent experiments (***, p < 0.0001, NS, not significant).

## CC(C)[n+]1ccn2[c]1[Ir-3]13([c]4ccccc4-c4cccc[n+]41)([c]1ccccc1-c1cccc[n+]13)[c]1n(cc[n+]1C(C)C)C2.F[P-](F)(F)(F)(F)F [Complex 4a]
  effect of z-VAD-fmk on cell death induced by the complex: could not prevent cell death
